Test system: 186277-243-T-J2-PDC complex spheroid growth
Test: Anticancer human tumor 186277-243-T-J2-PDC patient-derived colon adenocarcinoma cell line growth inhibition [AhR]
Details: for IC50: curve of first compound; for viability, T/C: stronger effect = lower value
In short: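 Spheroids combined tumor cells with HUVEC endothelial cells and human MSCs as stroma. AhR antagonists were paired with standard or investigational drugs, each dosed in half-log steps down from near clinical Cmax, or from 10 microM where Cmax was unknown.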

[1] = second compound 0.1 µM, first compound 0.00316 µM
[2] = second compound 0.1 µM, first compound 0.01 µM
[3] = second compound 0.1 µM, first compound 0.0316 µM
[4] = second compound 0.1 µM, first compound 0.1 µM
[5] = second compound 0.316 µM, first compound 0.00316 µM
[6] = second compound 0.316 µM, first compound 0.01 µM
[7] = second compound 0.316 µM, first compound 0.0316 µM
[8] = second compound 0.316 µM, first compound 0.1 µM
[9] = second compound 1 µM, first compound 0.00316 µM
[10] = second compound 1 µM, first compound 0.01 µM
[11] = second compound 1 µM, first compound 0.0316 µM
[12] = second compound 1 µM, first compound 0.1 µM
[13] = second compound 3.16 µM, first compound 0.00316 µM
[14] = second compound 3.16 µM, first compound 0.01 µM
[15] = second compound 3.16 µM, first compound 0.0316 µM
[16] = second compound 3.16 µM, first compound 0.1 µM
[17] = second compound 10 µM, first compound 0.00316 µM
[18] = second compound 10 µM, first compound 0.01 µM
[19] = second compound 10 µM, first compound 0.0316 µM
[20] = second compound 10 µM, first compound 0.1 µM
[21] = second compound 0.1 µM, first compound 0.316 µM
[22] = second compound 0.1 µM, first compound 1 µM
[23] = second compound 0.1 µM, first compound 3.16 µM
[24] = second compound 0.1 µM, first compound 10 µM
[25] = second compound 0.316 µM, first compound 0.316 µM
[26] = second compound 0.316 µM, first compound 1 µM
[27] = second compound 0.316 µM, first compound 3.16 µM
[28] = second compound 0.316 µM, first compound 10 µM
[29] = second compound 1 µM, first compound 0.316 µM
[30] = second compound 1 µM, first compound 1 µM
[31] = second compound 1 µM, first compound 3.16 µM
[32] = second compound 1 µM, first compound 10 µM
[33] = second compound 3.16 µM, first compound 0.316 µM
[34] = second compound 3.16 µM, first compound 1 µM
[35] = second compound 3.16 µM, first compound 3.16 µM
[36] = second compound 3.16 µM, first compound 10 µM
[37] = second compound 10 µM, first compound 0.316 µM
[38] = second compound 10 µM, first compound 1 µM
[39] = second compound 10 µM, first compound 3.16 µM
[40] = second compound 10 µM, first compound 10 µM
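Further: spheroids exposed to compounds for seven days before the viability read.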
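Wherever viability, T/C is given: luminescent signal used as a stand-in for viable cell amount; 100% = DMSO vehicle control wells.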

Compound | IC50 (second compound 0.1 µM) [nM] | IC50 (second compound 0.316 µM) [nM] | IC50 (second compound 1 µM) [nM] | IC50 (second compound 3.16 µM) [nM] | IC50 (second compound 10 µM) [nM] | viability, T/C [3] [%] | viability, T/C [4] [%] | viability, T/C [7] [%] | viability, T/C [8] [%] | viability, T/C [11] [%] | viability, T/C [12] [%] | viability, T/C [15] [%] | viability, T/C [16] [%] | viability, T/C [19] [%] | viability, T/C [20] [%] | viability, T/C [21] [%] | viability, T/C [22] [%] | viability, T/C [25] [%] | viability, T/C [26] [%] | viability, T/C [29] [%] | also measured
CC[C@@]1(O)C(=O)OCc2c1cc1n(c2=O)Cc2cc3c(CN(C)C)c(O)ccc3nc2-1 + Cc1cncc(-c2nc(NCCc3c[nH]c4ccccc34)c3ncn(C(C)C)c3n2)c1 | > 100 | > 100 | > 100 | > 100 | 1.33 | 92.6 | 62 | 86.2 | 64.8 | 85.2 | 69.4 | 87.4 | 68.9 | 31 | 39 | – | – | – | – | – | viability, T/C (second compound 0.1 µM, first compound 0.000316 µM): 98.8%; viability, T/C (second compound 0.1 µM, first compound 0.001 µM): 96.3%; viability, T/C [1]: 118%; viability, T/C [2]: 112%; viability, T/C (second compound 0.316 µM, first compound 0.000316 µM): 107%; viability, T/C (second compound 0.316 µM, first compound 0.001 µM): 101%; viability, T/C [5]: 104%; viability, T/C [6]: 135%; viability, T/C (second compound 1 µM, first compound 0.000316 µM): 99.6%; viability, T/C (second compound 1 µM, first compound 0.001 µM): 108%; viability, T/C [9]: 125%; viability, T/C [10]: 140%; viability, T/C (second compound 3.16 µM, first compound 0.000316 µM): 118%; viability, T/C (second compound 3.16 µM, first compound 0.001 µM): 109%; viability, T/C [13]: 145%; viability, T/C [14]: 135%; viability, T/C (second compound 10 µM, first compound 0.000316 µM): 49.5%; viability, T/C (second compound 10 µM, first compound 0.001 µM): 57.9%; viability, T/C [17]: 38.7%; viability, T/C [18]: 28.6%
COc1cccc2c1C(=O)c1c(O)c3c(c(O)c1C2=O)CC(O)(C(=O)CO)CC3OC1CC(N)C(O)C(C)O1 (stereo not given) + Cc1cncc(-c2nc(NCCc3c[nH]c4ccccc34)c3ncn(C(C)C)c3n2)c1 | 200 | 171 | 163 | 126 | < 31.6 | 107 | 78.6 | 110 | 70.4 | 93.2 | 71.3 | 83.5 | 59.9 | 21.9 | 18.5 | 32.6 | 0.46 | 28.2 | 0.27 | 21.2 | viability, T/C [23]: 0.03%; viability, T/C [24]: 0.25%; viability, T/C [27]: 0.04%; viability, T/C [28]: 0.22%; viability, T/C [30]: 0.08%; viability, T/C [31]: 0.32%; viability, T/C [32]: 0.26%; viability, T/C [33]: 10.8%; viability, T/C [34]: 0.05%; viability, T/C [35]: 0.21%; viability, T/C [36]: 0.79%; viability, T/C [37]: 3.26%; viability, T/C [38]: 0.12%; viability, T/C [39]: 0.49%; viability, T/C [40]: 0.31%

The next lines start with results.

IC50 (second compound 0.1 µM) [nM] | IC50 (second compound 0.316 µM) [nM] | IC50 (second compound 1 µM) [nM] | IC50 (second compound 3.16 µM) [nM] | IC50 (second compound 10 µM) [nM] | Compound | viability, T/C [3] [%] | viability, T/C [4] [%] | viability, T/C [7] [%] | viability, T/C [8] [%] | viability, T/C [11] [%] | viability, T/C [12] [%] | viability, T/C [15] [%] | viability, T/C [16] [%] | viability, T/C [19] [%] | viability, T/C [20] [%] | viability, T/C [21] [%] | viability, T/C [22] [%] | viability, T/C [25] [%] | viability, T/C [26] [%] | viability, T/C [29] [%] | also measured
2130 | 1440 | 1600 | 1450 | 48.5 | COc1cc(C2c3cc4c(cc3C(OC3OC5COC(C)OC5C(O)C3O)C3COC(=O)C23)OCO4)cc(OC)c1O (stereo not given) + Cc1cncc(-c2nc(NCCc3c[nH]c4ccccc34)c3ncn(C(C)C)c3n2)c1 | 119 | 111 | 119 | 124 | 110 | 149 | 127 | 147 | 55 | 44.5 | 113 | 58.7 | 107 | 53.4 | 99.8 | viability, T/C [23]: 52%; viability, T/C [24]: 21.9%; viability, T/C [27]: 48%; viability, T/C [28]: 21.1%; viability, T/C [30]: 59.5%; viability, T/C [31]: 44.6%; viability, T/C [32]: 19.9%; viability, T/C [33]: 89.3%; viability, T/C [34]: 59.4%; viability, T/C [35]: 42.7%; viability, T/C [36]: 19.9%; viability, T/C [37]: 20.8%; viability, T/C [38]: 24.3%; viability, T/C [39]: 22.9%; viability, T/C [40]: 9.36%
< 31.6 | < 31.6 | < 31.6 | < 31.6 | < 31.6 | Nc1ccn(C2OC(CO)C(O)C2(F)F)c(=O)n1 (stereo not given) + Cc1cncc(-c2nc(NCCc3c[nH]c4ccccc34)c3ncn(C(C)C)c3n2)c1 | 7.18 | 8.73 | 7.58 | 7.59 | 8.42 | 8.73 | 8.88 | 9.87 | 9.79 | 9.68 | 9.08 | 7.46 | 8.77 | 7.4 | 8.67 | viability, T/C [23]: 9.53%; viability, T/C [24]: 8.43%; viability, T/C [27]: 9.8%; viability, T/C [28]: 10.2%; viability, T/C [30]: 8.54%; viability, T/C [31]: 10.4%; viability, T/C [32]: 9.89%; viability, T/C [33]: 8.78%; viability, T/C [34]: 9.16%; viability, T/C [35]: 10.2%; viability, T/C [36]: 11.2%; viability, T/C [37]: 7.97%; viability, T/C [38]: 8.56%; viability, T/C [39]: 9.28%; viability, T/C [40]: 10.2%
> 1000 | > 1000 | > 1000 | > 1000 | > 1000 | Nc1ncn(C2CC(O)C(CO)O2)c(=O)n1 (stereo not given) + Cc1cncc(-c2nc(NCCc3c[nH]c4ccccc34)c3ncn(C(C)C)c3n2)c1 | 91.4 | 119 | 107 | 113 | 99.9 | 126 | 111 | 118 | 56.7 | 46.6 | 147 | 143 | 137 | 150 | 156 | viability, T/C [1]: 116%; viability, T/C [2]: 86.8%; viability, T/C [5]: 120%; viability, T/C [6]: 93.6%; viability, T/C [9]: 98.5%; viability, T/C [10]: 104%; viability, T/C [30]: 157%; viability, T/C [13]: 114%; viability, T/C [14]: 113%; viability, T/C [33]: 120%; viability, T/C [34]: 165%; viability, T/C [17]: 59.8%; viability, T/C [18]: 65.1%; viability, T/C [37]: 52.6%; viability, T/C [38]: 68.6%

— PubChem BioAssay AID1918991 (Molecular Pharmacology Branch, DTP, NCI, 2023)
